Data on 1 molecule can be found in patent publication US10912841B2, “Antibody-drug-conjugate and its use for the treatment of cancer” (PIERRE FABRE MEDICAMENT, priority 2014, dated 2021).

Where a SMILES comes first, the peptide text is derived from it. [ ]: non-standard residue; d: D form. The star is where a group is joined. Dolaproine = CO[C@@H]([C@@H]1CCCN1)[C@@H](C)C(=O)O; Dil = CC[C@H](C)[C@H](NC)[C@@H](CC(=O)O)OC; X2 = CC(C)[C@@H](C(=O)*)N(C)CCc1ccc(O)cc1

One assay has as its system A549 cells. In words: ATPLITE antiproliferative assay, A549. Type of assay: cell-based. The following applies: Homo sapiens, 72 h drug treatment. As to the method: (§1) A549 (Non Small Cell Lung Cancer—ATCC® CCL-185™) and MDA-MB-231 (breast adenocarcinoma—ATCC® HTB-26m) cells were cultured in Minimum Essential Medium Eagle (MEM) with 5% fetal calf serum (FCS) and Dulbecco's modified Eagle Medium (DMEM) with 10% FCS respectively. MCF7 (breast ductal carcinoma—ATCC® HTB-22m) and SN-12C (kidney carcinoma—ATCC) cells were maintained in RPMI1640 medium (without phenol red for MCF7 cells) containing 10% FCS. All the media were supplemented with fungizone (1.25 μg/mL) and penicillin-streptomycin (100 U/100 μg/mL). Cells were cultured under standard conditions in an incubator at 37° C., 5% CO2 and 95% atmospheric humidity.
(§2) Selected drugs were investigated for their antiproliferative activity using an ATPLITE® proliferation assay (Perkin Elmer, Villebon sur Yvette, France) on a comprehensive panel of 4 cell lines. […] On day 4, cell viability was evaluated by dosing the ATP released by viable cells. The number of viable cells was analyzed in comparison with the number of solvent treated cells. The EC50 values were determined with curve fitting analysis (non linear regression model with a sigmoidal dose response, variable hill slope coefficient), performed with the algorithm provided by the […]® Software ([…]® Software Inc., CA, USA).

For a further assay, the system named is MDA-MB-231 cells. In words: ATPLITE antiproliferative assay, MDA-MB-231. Type of assay: cell-based. The note with it: Homo sapiens, 72 h drug treatment. As to the method: as §1, §2
(In general: Cellular ATP, detected with luciferase, serves as a proxy for viable cell number.)

As for `CC[C@H](C)[C@@H]([C@@H](CC(=O)N1CCC[C@H]1[C@H](OC)[C@@H](C)C(=O)N[C@@H](Cc1ccccc1)C(=O)OC)OC)N(C)C(=O)[C@@H](NC(=O)[C@H](C(C)C)N(C)CCc1ccc(O)cc1)C(C)C` [Compound 27, methyl (S)-2-((2R,3R)-3-((S)-1-((3R,4S,5S)-4-((S)-2-((S)-2-((4-hydroxyphenethyl)(methyl)amino)-3-methylbutanamido)-N,3-dimethylbutanamido)-3-methoxy-5-methylheptanoyl)pyrrolidin-2-yl)-3-methoxy-2-methylpropanamido)-3-phenylpropanoate, trifluoroacetic acid] (X2-V[Dil][Dolaproine]F-OMe), the EC50 (usually the concentration at which the effect is half-maximal) in the assay on A549 cells was 0.086 nM; in the assay with MDA-MB-231 cells, 0.12 nM.
